Results reported in the NIST ThermoML archive (doi:10.1016/j.jct.2005.07.019).
± gives the expanded uncertainty stated by the source.

Assay: mn = molality of the nth substance listed, in mol/kg
Conditions: 350 kPa, Liquid, Extra sensitive DSC

N[C@@H](CO)C(=O)O [L-serine] + O
apparent molar heat capacity [J/K/mol]
Conditions	m1 = 0.015	m1 = 0.0302	m1 = 0.05	m1 = 0.08	m1 = 0.1249	m1 = 0.2501	m1 = 0.3717	m1 = 0.7002	m1 = 1.001
278.15 K	58.9 ± 52	59.2 ± 26	58.9 ± 16	60.7 ± 9.8	62.4 ± 6.4	67.93 ± 3.5	72.64 ± 2.7	84.65 ± 1.9	94.04 ± 1.7
283.15 K	78.9 ± 52	79.3 ± 26	79.2 ± 16	80.6 ± 9.9	82.1 ± 6.4	86.36 ± 3.6	90.3 ± 2.7	99.99 ± 2	108.37 ± 1.8
288.15 K	94.8 ± 52	95.4 ± 26	95.2 ± 16	96.5 ± 9.9	97.7 ± 6.4	101.28 ± 3.6	104.58 ± 2.7	112.69 ± 2	120.13 ± 1.8
293.15 K	108 ± 52	108.7 ± 26	108.4 ± 16	109.5 ± 9.9	110.5 ± 6.5	113.56 ± 3.6	116.4 ± 2.8	123.33 ± 2	129.97 ± 1.8
298.15 K	118.7 ± 52	119.4 ± 26	119.2 ± 16	120.1 ± 10	120.9 ± 6.5	123.63 ± 3.6	126.11 ± 2.8	132.2 ± 2	138.25 ± 1.8
303.15 K	127.9 ± 52	128.6 ± 26	128.4 ± 16	129.2 ± 10	129.9 ± 6.5	132.24 ± 3.7	134.43 ± 2.8	139.82 ± 2	145.45 ± 1.8
308.15 K	135.6 ± 52	136.4 ± 26	136.2 ± 16	136.9 ± 10	137.5 ± 6.5	139.63 ± 3.7	141.58 ± 2.8	146.36 ± 2	151.62 ± 1.8
313.15 K	142.6 ± 52	143.1 ± 26	142.9 ± 16	143.5 ± 10	144.1 ± 6.6	145.98 ± 3.7	147.77 ± 2.8	152.15 ± 2	157.1 ± 1.8
318.15 K	148.7 ± 52	148.9 ± 26	148.6 ± 16	149.2 ± 10	149.7 ± 6.6	151.4 ± 3.7	153.04 ± 2.8	157.06 ± 2	161.73 ± 1.8
323.15 K	153.9 ± 52	154.1 ± 26	153.8 ± 16	154.2 ± 10	154.6 ± 6.6	156.2 ± 3.7	157.74 ± 2.9	161.47 ± 2	165.95 ± 1.8
328.15 K	158.6 ± 52	158.6 ± 26	158.3 ± 16	158.7 ± 10	159 ± 6.7	160.4 ± 3.9	161.86 ± 2.9	165.32 ± 2.1	169.63 ± 1.8
333.15 K	163.4 ± 52	163.1 ± 26	162.2 ± 16	162.6 ± 10	162.9 ± 6.7	164.2 ± 3.9	165.59 ± 2.9	168.83 ± 2.1	173.01 ± 1.8
